Experiments:
[1] = system: JHH-7 cells (GPC3-high); assay: On-cell binding by flow cytometry; conditions: flow cytometry
Protocol: (§1) Briefly, cells were seeded at 50,000 cells/well in V-bottom 96-well plates and treated with antibody for 24 hours at 4° C. to prevent internalization. […] Following incubation and washing, fluorescence was detected by flow cytometry on a BD LSRFortessa™ Cell Analyzer (BD Biosciences, Franklin Lake, NJ) with 1,000 minimum events collected per well. AF647/APC-A GeoMean (fluorescence signal geometric mean, proportional to anti-Human AF647 binding) in live cell population was plotted against antibody concentration using GraphPad Prism Version 9 (GraphPad Software, San Diego, CA). The Bmax, Curve Hill Slope (h) and Kd values were derived from the “Specific binding with Hill slope” nonlinear regression curve fit in GraphPad Prism Version 9.
(§2) The on-cell binding capabilities of light chain (LC)-modified M3-H18L6 antibody constructs were assessed on JHH-7 (hepatocellular carcinoma; GPC3-high) and JHH-5 (hepatocellular carcinoma; GPC3-mid) by flow cytometry as described below. […] The assay was carried out as described in Example 13.
(§3) Briefly, plasma stress was carried out by incubating M3-H18L6 LC-modified antibodies in mouse plasma (BioIVT, Westbury, NY; Cat. No. MSE00PL38NC-0103070) for 14 days in a 37° C./5% CO2 incubator. […] Following incubation and washing, fluorescence was detected by flow cytometry on a BD LSRFortessa™ Cell Analyzer (BD Biosciences, Franklin Lake, NJ) with 1,000 minimum events collected per well. AF647/APC-A GeoMean (fluorescence signal geometric mean, proportional to anti-Human AF647 binding) in live cell population was plotted against antibody concentration using GraphPad Prism Version 9 (GraphPad Software, San Diego, CA). […] Following incubation, cells were dissociated, washed, and surface AF488 fluorescence was quenched using an anti-AF488 antibody (Life Technologies, Carlsbad, CA; Cat. No. A-11094) at 100 nM for 30 minutes at 4° C. Quenched AF488 fluorescence (internalized fluorescence) was detected by flow cytometry on a BD LSRFortessa™ Cell Analyzer (BD Biosciences, Franklin Lake, NJ) with 1,000 minimum events collected per well.

[2] = system: JHH-5 cells (GPC3-mid); assay: On-cell binding by flow cytometry
Protocol: as §1, §2, §3

[3] = system: cynomolgus monkey GPC3 on transfected CHO-S cells; assay: Binding to transfected CHO-S cells by flow cytometry; conditions: 24 h at 4 °C
cynomolgus monkey GPC3 on transfected CHO-S cells, sequence (as listed by the source): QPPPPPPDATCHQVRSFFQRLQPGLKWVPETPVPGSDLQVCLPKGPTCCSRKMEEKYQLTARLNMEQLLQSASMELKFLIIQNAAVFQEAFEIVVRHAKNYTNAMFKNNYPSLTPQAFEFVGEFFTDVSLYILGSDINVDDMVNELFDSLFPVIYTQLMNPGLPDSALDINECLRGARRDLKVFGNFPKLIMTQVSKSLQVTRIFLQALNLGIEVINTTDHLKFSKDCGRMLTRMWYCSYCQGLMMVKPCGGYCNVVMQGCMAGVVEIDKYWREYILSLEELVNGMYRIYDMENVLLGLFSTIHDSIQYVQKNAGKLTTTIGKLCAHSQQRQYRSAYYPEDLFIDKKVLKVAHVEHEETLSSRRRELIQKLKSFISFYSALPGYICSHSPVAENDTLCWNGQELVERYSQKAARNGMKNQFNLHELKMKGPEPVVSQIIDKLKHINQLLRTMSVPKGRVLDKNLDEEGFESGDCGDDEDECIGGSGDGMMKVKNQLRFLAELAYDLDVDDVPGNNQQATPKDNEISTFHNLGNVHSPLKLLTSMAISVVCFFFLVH
Protocol: Briefly, CHO—S cells were transiently transfected for −24 hours with a pTT5-based expression plasmid encoding human GPC3 or cynomolgus monkey GPC3, 0.5 μg DNA per 1 million cells, using the Neon™ Transfection System (Thermo Fisher Scientific Corp., Waltham, MA), to transiently express human or cynomolgus monkey GPC3. Following transfection, cells were seeded at 50,000 cells/well in V-bottom 96-well plates and treated with antibody for 24 hours at 4° C. to prevent internalization. […] Following incubation and washing, fluorescence was detected by flow cytometry on a BD LSRFortessa™ Cell Analyzer (BD Biosciences, Franklin Lake, NJ) with 1,000 minimum events collected per well. AF647/APC-A GeoMean (fluorescence signal geometric mean, proportional to anti-Human AF647 binding) in live cell population was plotted against antibody concentration using GraphPad Prism Version 9 (GraphPad Software, San Diego, CA). The Bmax and Kd values were derived from the “Specific binding with Hill slope” nonlinear regression curve fit in GraphPad Prism Version 9.
Briefly, CHO—S cells were transiently transfected for −24 hours with a pTT5-based expression plasmid encoding human GPC3 or cynomolgus monkey GPC3, 0.5 μg DNA per 1 million cells, using the Neon™ Transfection System (Thermo Fisher Scientific Corp., Waltham, MA), to transiently express human or cynomolgus monkey GPC3. […]

[4] = system: GFP-transfected CHO cells; assay: Binding to transfected CHO-S cells by flow cytometry (negative transfection control)
Protocol: Briefly, CHO—S cells were transiently transfected for −24 hours with a pTT5-based expression plasmid encoding human GPC3 or cynomolgus monkey GPC3, 0.5 μg DNA per 1 million cells, using the Neon™ Transfection System (Thermo Fisher Scientific Corp., Waltham, MA), to transiently express human or cynomolgus monkey GPC3. Cells transfected with GFP were used as negative transfection controls. Following transfection, cells were seeded at 50,000 cells/well in V-bottom 96-well plates and treated with antibody for 24 hours at 4° C. to prevent internalization. […] Following incubation and washing, fluorescence was detected by flow cytometry on a BD LSRFortessa™ Cell Analyzer (BD Biosciences, Franklin Lake, NJ) with 1,000 minimum events collected per well. AF647/APC-A GeoMean (fluorescence signal geometric mean, proportional to anti-Human AF647 binding) in live cell population was plotted against antibody concentration using GraphPad Prism Version 9 (GraphPad Software, San Diego, CA). The Bmax and Kd values were derived from the “Specific binding with Hill slope” nonlinear regression curve fit in GraphPad Prism Version 9.

[5] = target: T1, human GPC3 on transfected CHO-S cells (Homo sapiens, UniProt P51654); assay: Binding to transfected CHO-S cells by flow cytometry; conditions: 24 h at 4 °C
T1 construct: expressed in transfected cells; host or cells: CHO-S cells, transient transfection (Neon system)
Protocol: (§4) Following transfection, cells were seeded at 50,000 cells/well in V-bottom 96-well plates and treated with antibody for 24 hours at 4° C. to prevent internalization. […] Following incubation and washing, fluorescence was detected by flow cytometry on a BD LSRFortessa™ Cell Analyzer (BD Biosciences, Franklin Lake, NJ) with 1,000 minimum events collected per well.
as §4

palivizumab
did not exhibit any binding: binding to JHH-7 cells, in words [1] | binding to JHH-5 cells, in words [2] | binding to CHO-S cells expressing cynomolgus monkey GPC3, in words [3] | binding to GFP-transfected CHO cells, in words [4] | binding to CHO-S cells expressing human GPC3, in words [5]

Source: patent publication US20250295799A1, “ANTIBODY-DRUG CONJUGATES TARGETING GLYPICAN-3 AND METHODS OF USE” (Zymeworks BC Inc., priority 2022, published 2025)
